Source: patent US8895746B2 (University of Central Florida Research Foundation, Inc., priority 2009, dated 2014)
Read-outs that look alike come from different tables or passages of the source. Each block holds one compound with its values, some of them ahead of it. Square brackets hold non-standard residues; d marks the D form. Ends that are not written are not given here. Peptide text beside a SMILES is read from it. pY = N[C@@H](Cc1ccc(OP(=O)(O)O)cc1)C(=O)O

Assays:
Stat3 [1] = molecular target: T1, Stat3 (Mus musculus, UniProt P42227); test: Fluorescence Polarization assay, Stat3 binding to 5-carboxyfluorescein-GpYLPQTV-NH2 probe; design: Coding regions for the murine Stat3 protein; made in house; host or cells: E. coli BL21(DE3); species or system murine
T1 sequence (P42227 whole entry, the tested form may be a part): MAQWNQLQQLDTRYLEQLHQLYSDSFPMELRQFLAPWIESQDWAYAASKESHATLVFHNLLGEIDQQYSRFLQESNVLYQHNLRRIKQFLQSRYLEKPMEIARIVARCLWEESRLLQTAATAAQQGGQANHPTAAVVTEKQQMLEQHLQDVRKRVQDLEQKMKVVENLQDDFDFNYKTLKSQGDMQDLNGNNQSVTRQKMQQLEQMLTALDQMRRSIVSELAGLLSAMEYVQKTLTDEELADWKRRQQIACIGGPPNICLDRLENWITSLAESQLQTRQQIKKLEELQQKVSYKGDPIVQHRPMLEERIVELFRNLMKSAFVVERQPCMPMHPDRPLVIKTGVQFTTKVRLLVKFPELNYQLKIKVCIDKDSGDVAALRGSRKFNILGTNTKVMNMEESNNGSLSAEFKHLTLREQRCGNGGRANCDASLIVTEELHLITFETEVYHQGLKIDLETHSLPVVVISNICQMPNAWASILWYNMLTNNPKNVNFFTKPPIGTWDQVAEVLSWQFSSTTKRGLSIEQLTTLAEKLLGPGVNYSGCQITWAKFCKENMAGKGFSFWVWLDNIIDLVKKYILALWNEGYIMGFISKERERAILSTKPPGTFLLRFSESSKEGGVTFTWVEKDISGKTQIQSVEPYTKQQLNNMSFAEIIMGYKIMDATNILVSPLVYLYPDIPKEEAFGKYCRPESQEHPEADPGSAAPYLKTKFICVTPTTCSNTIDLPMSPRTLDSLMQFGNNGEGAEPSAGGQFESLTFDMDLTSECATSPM
Procedure: (§1) Coding regions for the murine Stat3 protein and Stat3 SH2 domain were amplified by PCR and cloned into vectors pET-44 Ek/LIC (Novagen) and pET SUMO (Invitrogen), respectively.
Fluorescence Polarization (FP) Assay was conducted as previously reported (23), with some modification using the phospho-peptide, 5-carboxyfluorescein-GpYLPQTV-NH2 (phosphorylated SEQ ID NO:7) (where pY represents phospho-Tyr) as probe and Stat3. The FP assay was used to evaluate the binding of agents to Stat3 and to determine the ability to disrupt the Stat3:pTyr peptide interaction. A fixed concentration of the fluorescently-labeled peptide probe (10 nM) was incubated with increasing concentration of the Stat3 protein for 30 min at room temperature in the buffer, 50 mM NaCI, 10 mM HEPES, 1 mM EDTA, 0.1% Nonidet P-40, and the fluorescent polarization measurements were determined using the POLARstar Omega (BMG LABTECH, Durham, N.C.), with the set gain adjustment at 35 mP. The Z′ value was derived per the equation Z′=1−(3 SDbound+3 SD free)/(mPbound−mPfree), where SD is the standard deviation and mP is the average of fluorescence polarization. In the bound state, 10 nM 5-carboxyfluorescein-GpYLPQTV-NH2 (phosphorylated SEQ ID NO:7) was incubated with 150 nM purified Stat3 protein, while the free (unbound) state was the same mixture, but incubated with an additional 10 IJM unlabeled Ac-GpYLPQTV-NH2 (phosphorylated SEQ ID NO:7). For evaluating agents, Stat3 protein (150 nM) was incubated with serial concentrations of S31-201.1066 at 30° C. for 60 min in the indicated assay buffer conditions. Prior to the addition of the fluorescence probe, the protein:S31-201.1066 mixtures were allowed to equilibrate at room temperature for 15 min. Probe was added at a final concentration of 10 nM and incubated for 30 min at room temperature following which the FP measurements were taken using the POLARstar Omega, with the set gain adjustment at 35 mP.
The FP assay was used to further test the computational modeling prediction of the ability of S31-201.1066 to disrupt Stat3 interaction with its cognate pTyr peptide.

His-tagged Stat3 = molecular target: T2, His-tagged Stat3 (Mus musculus, UniProt P42227); test: Surface Plasmon Resonance analysis of binding to immobilized His-tagged Stat3; design: species or system murine
T2 construct: Coding regions for the murine Stat3 protein; made in house; host or cells: E. coli BL21(DE3)
T2 sequence (P42227 whole entry): as the sequence (P42227 whole entry, the tested form may be a part) above
Text: as §1
Clones were sequenced to verify the correct sequences and orientation. His-tagged recombinant proteins were expressed in BL21(DE3) cells, and purified on Ni-ion sepharose column.
SensiQ and its analysis software Qdat (ICX Technologies, Oklahoma City, Okla.) were used to analyze the interaction between agents and the Stat3 protein and to determine the binding affinity. Purified Stat3 was immobilized on a HisCap Sensor Chip by injecting 50 µg/ml of Stat3 onto the chip. […] The association and dissociation rate constants were calculated using the Qdat software. The ratio of the association and dissociation rate constants was determined as the affinity (KD).
To provide definitive evidence of direct binding to Stat3, biophysical studies were performed. H1s-tagged Stat3 protein (or SH2 domain; 50 ng) was immobilized on a Ni-NTA sensor chip surface for Surface Plasmon Resonance analysis of the binding of 531201.1066 as the analyte. Association and dissociation measurements were taken and the binding affinity of S31-201.1066 for Stat3 was determined using Qdat software.

Stat3 [2] = molecular target: T1, Stat3; design: endogenous in cells; host or cells: NIH3T3/v-Src mouse fibroblasts (nuclear extract); conditions: read-out: IC50, disruption of Stat3 DNA-binding activity in vitro; previously reported (22); cited from earlier work
Stat3 [3] = molecular target: T1, Stat3; design: Coding regions for the murine Stat3 protein; made in house; host or cells: E. coli BL21(DE3); conditions: cited from earlier work
[4] = tested on: NIH3T3/v-Src, MDA-MB-231 and Panc-1 cells; conditions: previously reported (18); cited from earlier work
Stat3 [5] = molecular target: T1, Stat3; test: Stat3 DNA-binding assay in vitro (EMSA, hSIE probe), nuclear extracts of NIH3T3/v-Src; format: biochemical; design: endogenous in cells; host or cells: NIH3T3/v-Src mouse fibroblasts (nuclear extract); conditions: 30 min pre-incubation at room temperature, read-out: IC50, inhibition of Stat3 DNA-binding activity in vitro
Procedure: Nuclear extract preparations and electrophoretic mobility shift assay (EMSA) were carried out as previously described (28,33). […] Except where indicated, nuclear extracts were pre-incubated with compound for 30 min at room temperature prior to incubation with the radiolabeled probe for 30 min at 30° C. before subjecting to EMSA analysis.

effect on the fluorescent polarization signal (Stat3 [1]; data not shown): no evidence of effect | binding to Stat3 (SPR) (His-tagged Stat3; SPR, immobilized His-Stat3): little evidence of significant binding
Compound: GYLPQTV-NH2 [reference compound]

Compound: CC(C)C[C@H](NC(=O)[C@H](Cc1ccc(OP(=O)(O)O)cc1)NC(=O)CN)C(=O)N1CCC[C@H]1C(=O)N[C@@H](CCC(N)=O)C(=O)N[C@H](C(=O)N[C@H](C(N)=O)C(C)C)[C@@H](C)O [GpYLPQTV-NH2] (H-G[pY]LPQTV-NH2)
IC50 (Stat3 [2]): 150 nM | IC50 (Stat3 [1]; 150 nM Stat3, 10 nM probe, read-out: IC50, disruption of Stat3 binding to pTyr peptide probe): 300 nM | IC50 (Stat3 [3]; read-out: IC50, reported, reported (21)): 290 ± 63 nM | IC50 (Stat3 [3]; read-out: IC50 in FP assay, previously reported value, previously reported (23)): 250 ± 30 nM | Kd (Stat3 [3]; read-out: affinity for Stat3, reported, reported (23)): 150 ± 10 nM | Kd (His-tagged Stat3): 24 nM

Compound: Cc1ccc(S(=O)(=O)OCC(=O)Nc2ccc(C(=O)O)c(O)c2)cc1 [S3I-201]
concentration of antitumor cell activity previously reported for the lead agent [4]: 100 µM

IC50 (Stat3 [5]): 45000 nM
Compound: Cc1ccc(S(=O)(=O)N(C)CC(=O)N(Cc2ccc(C3CCN(c4ccc(C#N)cc4)CC3)cc2)c2ccc(C(=O)O)c(O)c2)cc1 [S3I-201.2096]
